One series deals with T1, histamine H3 receptor (Rattus norvegicus, UniProt Q9QYN8).
T1 construct: from tissue; host or cells: rat striatum (Sprague-Dawley, male, 6 weeks), membrane homogenate
Put plainly: Histamine H3 receptor binding assay ([3H]-Nα-methylhistamine binding to rat striatum homogenate). Conditions: 1 μmol/L test compound; [3H]-Nα-methylhistamine 1 nmol/L; striata of Sprague-Dawley male rats, 25° C., 1 hour; read-out: Inhibition ratio of [3H]-Nα-methylhistamine binding. An outline of the steps: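 Rat striatum membranes (20 μg protein) incubated with [3H]-Nα-methylhistamine 1 nmol/L in 50 mmol/L Tris/HCl pH 7.4, 5 mmol/L EDTA, 1 hour at 25° C; bound ligand by filtration and scintillation counting. Nonspecific binding defined with 10 μmol/L thioperamide; % inhibition reported at 1 μmol/L compound.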

Each structure is given as a SMILES string. Some results are limits rather than exact numbers.

Broadly, the melting point is the temperature of the solid-liquid transition.

T1 sequence (Q9QYN8 whole entry): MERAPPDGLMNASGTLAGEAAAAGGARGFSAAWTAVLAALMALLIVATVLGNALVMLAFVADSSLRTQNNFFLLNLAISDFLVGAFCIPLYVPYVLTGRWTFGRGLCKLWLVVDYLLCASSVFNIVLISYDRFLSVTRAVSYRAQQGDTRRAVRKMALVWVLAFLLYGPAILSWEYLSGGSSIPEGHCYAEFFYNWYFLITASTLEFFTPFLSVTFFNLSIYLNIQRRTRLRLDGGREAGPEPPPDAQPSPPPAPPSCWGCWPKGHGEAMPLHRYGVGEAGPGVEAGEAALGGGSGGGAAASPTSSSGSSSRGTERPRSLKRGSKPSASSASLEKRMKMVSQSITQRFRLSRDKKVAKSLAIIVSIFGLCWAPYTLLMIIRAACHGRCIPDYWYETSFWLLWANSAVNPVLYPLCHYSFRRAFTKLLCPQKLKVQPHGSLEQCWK

Compound `N#CC(C#N)=C(NCCCN1CCCCC1)N1CCC(N2CCCC2)CC1` [Compound 158, {(3-Piperidinopropylamino)[4-(pyrrolidin-1-yl)piperidino]methylene}malononitrile] had a melting point of 114 to 116 °C. For the same compound, the inhibition at 1 µM at histamine H3 receptor is at least 80%.
As for `CN1CCCC1CCN1CCN(CCC2CCCN2C)C1=C(C#N)C#N` (stereo not shown) [Compound 4, {1,3-Bis[2-(1-methylpyrrolidin-2-yl)ethyl]imidazolidin-2-ylidene}malononitrile], the melting point lay in the range of 121 to 123 °C. The inhibition at 1 µM on histamine H3 receptor is at least 80%.
`C#CC(C)(C)N1CCC(N2CCN(CCCN3CCCCC3)C2=C(C#N)C#N)CC1` [Compound 228, {1-[1-(1,1-Dimethyl-2-propynyl)piperidin-4-yl]-3-(3-piperidinopropyl)imidazolidin-2-ylidene}malononitrile]: the melting point fell in the range of 112 to 115 °C. In addition, the inhibition at 1 µM on histamine H3 receptor was at least 80%.
For the compound `N#CC(C#N)=C(NC1CCN(Cc2ccccc2)CC1)NC1CCN(Cc2ccccc2)CC1` [Compound 239, [Bis(1-benzylpiperidin-4-ylamino)methylene]malononitrile], the melting point lay within 147 to 148 °C.
Consider `N#CC(C#N)=C1N(CCCN2CCCCC2)CCN1C1CCN(CC(F)(F)F)CC1` [Compound 225, {1-(3-Piperidinopropyl)-3-[1-(2,2,2-trifluoroethyl)piperidin-4-yl]imidazolidin-2-ylidene}malononitrile], for which the melting point is 103 to 105 °C.
`N#CC(C#N)=C1N(CCCN2CCCCC2)CCN1CCN1CCCC1` [Compound 59, {1-(3-Piperidinopropyl)-3-[2-(pyrrolidin-1-yl)ethyl]imidazolidin-2-ylidene}malononitrile] yielded a melting point of 63 to 64 °C. Besides, at histamine H3 receptor, the inhibition at 1 µM is at least 80%.
On the same counts, the results for `CC(C)N1CCC(N(C)C(=C(C#N)C#N)N2CCC(CN3CCCCC3)CC2)CC1` [Compound 179, {[N-(1-isopropylpiperidin-4-yl)-N-methylamino](4-piperidinomethylpiperidino)methylene}malononitrile] are 197 to 198 °C and at least 80%.
`C[C@H]1CCCN1CCCN1CCN(CCN2CCCCC2)C1=C(C#N)C#N` [Compound 195, {1-[3-((S)-2-methylpyrrolidin-1-yl)propyl]-3-(2-piperidinoethyl)imidazolidin-2-ylidene}malononitrile] had a melting point of 70 to 71 °C. Further, the inhibition at 1 µM at histamine H3 receptor was at least 80%.
As to `N#CC(C#N)=C1N(CCCN2CCC[C@@H]2CO)CCN1CCCN1CCC[C@@H]1CO` [Compound 118, {1,3-Bis[3-((R)-2-hydroxymethylpyrrolidin-1-yl)propyl]imidazolidin-2-ylidene}malononitrile], the melting point is 79 to 80 °C. Moreover, the inhibition at 1 µM at histamine H3 receptor was at least 80%.
As to `C[C@@H]1CCCN1CCN1CCN(CCCN2CCC[C@@H]2C)C1=C(C#N)C#N` [Compound 196, {3-[2-((R)-2-methylpyrrolidin-1-yl)ethyl]-1-[3-((S)-2-methylpyrrolidin-1-yl)propyl]imidazolidin-2-ylidene}malononitrile], the melting point lay in the range of 94 to 95 °C. The inhibition at 1 µM at histamine H3 receptor is at least 80%.
The matching figures for `C[C@@H]1CCCN1CCCN1CCN(CCN2CCC[C@H]2C)C1=C(C#N)C#N` [Compound 55, {1-[2-((R)-2-methylpyrrolidin-1-yl)ethyl]-3-[3-((R)-2-methylpyrrolidin-1-yl)propyl]imidazolidin-2-ylidene}malononitrile]: 74 to 75 °C and at least 80%.
In turn, `N#CC(C#N)=C1N(CCN2CCCCC2)c2ccccc2N1CCN1CCCCC1` [Compound 192, [1,3-Bis-(2-piperidinoethyl)benzimidazolidin-2-ylidene]malononitrile] came in with a melting point of 127 to 128 °C.
The compound `N#CC(C#N)=C(NCCCN1CCCCC1)N1CCC(N2CCOCC2)CC1` [Compound 164, [(3-Piperidinopropylamino) (4-morpholinopiperidino)methylene]malononitrile] displayed a melting point of 122 to 124 °C.
On to `C[C@@H]1CCCN1CCCN1CCN(CCN2CCCCC2)C1=C(C#N)C#N` [Compound 194, {1-[3-((R)-2-methylpyrrolidin-1-yl)propyl]-3-(2-piperidinoethyl)imidazolidin-2-ylidene}malononitrile], for which the melting point is 74 to 76 °C. In addition, on histamine H3 receptor, the inhibition at 1 µM was at least 80%.
For `N#CC(C#N)=C(NCCCN1CCCCC1)N1CCN(C2CCCCC2)CC1` [Compound 183, [(4-Cyclohexylpiperazin-1-yl)(3-piperidinopropylamino)methylene]malononitrile], the melting point lay in the range of 136 to 137 °C.
On to `N#CCS(=O)(=O)C=C1N(CCCN2CCCCC2)CCN1CCCN1CCCCC1` [Compound 136, [1,3-Bis(3-piperidinopropyl)imidazolidin-2-ylidene]methanesulfonylacetonitrile], for which the melting point was 105 to 107 °C.
In the case of `CC(C)N1CCC(CN2CCN(CC3CCN(C(C)C)CC3)C2=C(C#N)C#N)CC1` [Compound 134, [1,3-Bis(1-isopropylpiperidin-4-ylmethyl)imidazolidin-2-ylidene]malononitrile], the inhibition at 1 µM at histamine H3 receptor was at least 80%.
On to `C[C@H]1CCCN1CCN(C)C(=C(C#N)C#N)N1CCC(CN2CCCCC2)CC1` [Compound 153, ({N-methyl-N-[2-((S)-2-methylpyrrolidin-1-yl)ethyl]amino}(4-piperidinomethylpiperidino)methylene)malononitrile], for which, at histamine H3 receptor, the inhibition at 1 µM is at least 80%.
As to `CN(CCN1CCCCC1)C(=C(C#N)C#N)N1CCC(N(C)c2ccccc2)CC1` [Compound 146, {[4-(N-methyl-N-phenylamino)piperidino][N-methyl-N-(2-piperidinoethyl)amino]methylene}malononitrile], the melting point was 156 to 158 °C.
As to `CC(C)N1CCC(CN2CCN(CCCN3CCCCC3)C2=C(C#N)C#N)CC1` [Compound 133, {1-[(1-Isopropylpiperidin-4-yl)methyl]-3-(3-piperidinopropyl)imidazolidin-2-ylidene}malononitrile], the inhibition at 1 µM on histamine H3 receptor is at least 80%.
In the case of `CC1CCCN(CCCN2CCN(CCCN3CCOCC3)C2=C(C#N)C#N)C1` (stereo not shown) [Compound 80, {1-[3-(3-Methylpiperidino)propyl]-3-(3-morpholinopropyl)imidazolidin-2-ylidene}malononitrile], the inhibition at 1 µM on histamine H3 receptor is at least 80%.
As for `N#CC(C#N)=C1N(CCCN2CCCCC2)CCN1C1CCN(CC2CC2)CC1` [Compound 229, [1-(1-Cyclopropylmethylpiperidin-4-yl)-3-(3-piperidinopropyl)imidazolidin-2-ylidene]malononitrile], the inhibition at 1 µM on histamine H3 receptor was at least 80%.
For the compound `C[C@@H]1CCCN1CCCN1CCN(CCCN2CCC[C@@H]2C)C1=C(C#N)S(=O)(=O)c1ccccc1` [Compound 246, {1-[3-((S)-2-methylpyrrolidin-1-yl)propyl]-3-[3-((R)-2-methylpyrrolidin-1-yl)propyl]imidazolidin-2-ylidene}benzenesulfonylacetonitrile], the inhibition at 1 µM on histamine H3 receptor was at least 80%.
The compound `C[C@H]1CCCN1CCCN1CCN(CCCN2CCC[C@@H]2C)C1=CS(=O)(=O)CC#N` [Compound 138, {1,3-Bis[3-((S)-2-methylpyrrolidin-1-yl)propyl]imidazolidin-2-ylidene}methanesulfonylacetonitrile] came in with a melting point of 91 to 93 °C.

These data come from patent US20090181948A1, “DIAMINE DERIVATIVE” (KYOWA HAKKO KOGYO CO., LTD., priority 2005, published 2009).
